Data taken from US8273774B2, “Phenoxypyridinylamide compounds” (AstraZeneca AB, priority 2008, dated 2012).

Molecular target: recombinant Human Phosphodiesterase B2 (PDE4B2) (Homo sapiens, UniProt Q07343)
Assay: Human Phosphodiesterase B2 Radiometric Assay
Assay type: biochemical
Settings: 0.1 μg/mL recombinant PDE4B2; preincubated at 30 C for 30 min; [3H]cyclic AMP 8 nM, stopped after 20 min; yttrium silicate SPA beads; read-out: PDE4B2 pIC50 (converted)
Method in brief: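 SPA read-out: product 5′AMP binds yttrium silicate beads (added with 18 mM ZnSO4 after 20 min) in preference to [3H]cAMP substrate, given at 8 nM final.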

Chain of recombinant Human Phosphodiesterase B2 (PDE4B2) (Q07343 1-564 isoform Q07343-2): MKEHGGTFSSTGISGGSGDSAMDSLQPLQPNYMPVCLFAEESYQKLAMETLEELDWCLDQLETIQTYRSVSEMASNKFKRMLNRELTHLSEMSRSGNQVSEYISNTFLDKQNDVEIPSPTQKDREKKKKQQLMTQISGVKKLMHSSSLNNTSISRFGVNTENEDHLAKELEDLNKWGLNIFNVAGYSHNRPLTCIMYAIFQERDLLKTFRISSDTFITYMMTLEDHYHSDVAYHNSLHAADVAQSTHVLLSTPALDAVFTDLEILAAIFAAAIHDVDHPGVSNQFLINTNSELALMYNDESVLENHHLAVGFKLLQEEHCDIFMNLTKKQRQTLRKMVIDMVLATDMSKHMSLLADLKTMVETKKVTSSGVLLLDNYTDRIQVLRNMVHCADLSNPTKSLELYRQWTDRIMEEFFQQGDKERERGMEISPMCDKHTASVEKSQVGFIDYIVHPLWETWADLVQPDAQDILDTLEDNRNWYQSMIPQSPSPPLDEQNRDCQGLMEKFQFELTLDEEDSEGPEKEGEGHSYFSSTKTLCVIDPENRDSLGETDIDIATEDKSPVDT

SMILES | IC50
Cc1cc(C(=O)N[C@H]2CC[C@@H](NC(=O)c3cc(F)cnc3Oc3cccc(-c4cccc(CN5C[C@@H](C)N[C@@H](C)C5)c4O)c3)CC2)nn1C [Example 78, N-((1s,4s)-4-(1,5-dimethyl-1H-pyrazole-3-carboxamido)cyclohexyl)-2-(3′-(((3R,5S)-3,5-dimethylpiperazin-1-yl)methyl)-2′-hydroxybiphenyl-3-yloxy)-5-fluoronicotinamide] | 0.0794 nM
Cc1cc(C(=O)N[C@H]2CC[C@@H](NC(=O)c3cc(F)cnc3Oc3cccc(-c4ccc(CCCN5CCCC5)cc4)c3)CC2)nn1C [Example 79, N-((1s,4s)-4-(1,5-dimethyl-1H-pyrazole-3-carboxamido)cyclohexyl)-5-fluoro-2-(4′-(3-(pyrrolidin-1-yl)propyl)biphenyl-3-yloxy)nicotinamide] | 0.0316 nM
Cc1cc(C(=O)N[C@H]2CC[C@@H](NC(=O)c3cc(F)cnc3Oc3cccc(-c4ccc(O)cc4CN4CCCOCC4)c3)CC2)nn1C [Example 19, 2-(2′-((1,4-oxazepan-4-yl)methyl)-4′-hydroxybiphenyl-3-yloxy)-N-((1s,4s)-4-(1,5-dimethyl-1H-pyrazole-3-carboxamido)cyclohexyl)-5-fluoronicotinamide] | 0.01 nM
Cc1cc(C)n2nc(C(=O)N[C@H]3CC[C@@H](NC(=O)c4cc(F)cnc4Oc4cccc(-c5ccc(CN6CCCN(CCO)CC6)cc5CN5CCOC[C@@H]5C)c4)CC3)cc2n1 [Example 179, N-((1s,4s)-4-(5-Fluoro-2-(4′-((4-(2-hydroxyethyl)-1,4-diazepan-1-yl)methyl)-2′-(((S)-3-methylmorpholino)methyl)biphenyl-3-yloxy)nicotinamido)cyclohexyl)-5,7-dimethylpyrazolo[1,5-a]pyrimidine-2-carboxamide] | 0.0501 nM
Cc1ncsc1C(=O)N[C@H]1CC[C@@H](NC(=O)c2cc(F)cnc2Oc2cccc(-c3ccc(O)cc3CN3CCOCC3)c2)CC1 [Example 33, N-((1s,4s)-4-(5-fluoro-2-(4′-hydroxy-2′-(morpholinomethyl)biphenyl-3-yloxy)nicotinamido)cyclohexyl)-4-methylthiazole-5-carboxamide] | 0.631 nM
C[C@@H]1CN(Cc2cccc(-c3cccc(Oc4ncc(F)cc4C(=O)N[C@H]4CC[C@@H](NC(=O)c5cc6ccccn6n5)CC4)c3)c2)C[C@H](C)N1 [Example 151, N-((1s,4s)-4-(2-(3′-(((3S,5R)-3,5-dimethylpiperazin-1-yl)methyl)biphenyl-3-yloxy)-5-fluoronicotinamido)cyclohexyl)pyrazolo[1,5-a]pyridine-2-carboxamide] | 0.0631 nM
Cc1nc(C(=O)N[C@H]2CC[C@@H](NC(=O)c3cc(F)cnc3Oc3cccc(-c4cc(O)cc(CN5C[C@@H](C)N[C@@H](C)C5)c4)c3)CC2)cs1 [Example 65, N-((1s,4s)-4-(2-(3′-(((3R,5S)-3,5-dimethylpiperazin-1-yl)methyl)-5′-hydroxybiphenyl-3-yloxy)-5-fluoronicotinamido)cyclohexyl)-2-methylthiazole-4-carboxamide] | 0.0398 nM
CC(C)NC(=O)CN1CCN(Cc2ccc(-c3cccc(Oc4ncc(F)cc4C(=O)N[C@H]4CC[C@@H](NC(=O)c5cccc6[nH]cnc56)CC4)c3)c(CN3CCOCC3)c2)CC1 [Example 201, N-((1s,4s)-4-(5-fluoro-2-(4′-((4-(2-(isopropylamino)-2-oxoethyl)piperazin-1-yl)methyl)-2′-(morpholinomethyl)biphenyl-3-yloxy)nicotinamido)cyclohexyl)-1H-benzo[d]imidazole-4-carboxamide] | 0.0158 nM
Cc1cccc2nc(C(=O)N[C@H]3CC[C@@H](NC(=O)c4cc(F)cnc4Oc4cccc(-c5ccc(O)c(CN6C[C@@H](C)N[C@@H](C)C6)c5)c4)CC3)cn12 [Example 85, N-((1s,4s)-4-(2-(3′-(((3S,5R)-3,5-dimethylpiperazin-1-yl)methyl)-4′-hydroxybiphenyl-3-yloxy)-5-fluoronicotinamido)cyclohexyl)-5-methylimidazo[1,2-a]pyridine-2-carboxamide] | 0.0631 nM
Cc1cccc2nc(C(=O)N[C@H]3CC[C@@H](NC(=O)c4cc(F)cnc4Oc4cccc(-c5ccc(CN(C)CCO)cc5)c4)CC3)cn12 [Example 51, N-((1s,4s)-4-(5-fluoro-2-(4′-(((2-hydroxyethyl)(methyl)amino)methyl)biphenyl-3-yloxy)nicotinamido)cyclohexyl)-5-methylimidazo[1,2-a]pyridine-2-carboxamide] | 0.1 nM
Cc1nc(C(=O)N[C@H]2CC[C@@H](NC(=O)c3cc(F)cnc3Oc3cccc(-c4ccc(CCCN5C[C@@H](C)N[C@@H](C)C5)cc4)c3)CC2)cs1 [Example 75, N-((1s,4s)-4-(2-(4′-(3-((3S,5R)-3,5-dimethylpiperazin-1-yl)propyl)biphenyl-3-yloxy)-5-fluoronicotinamido)cyclohexyl)-2-methylthiazole-4-carboxamide] | 0.0316 nM
O=C(N[C@H]1CC[C@@H](NC(=O)c2cnn3cccnc23)CC1)c1cc(F)cnc1Oc1cccc(-c2ccc(CN3CCSCC3)cc2CN2CCOCC2)c1 [Example 197, N-((1s,4s)-4-(5-fluoro-2-(2′-(morpholinomethyl)-4′-(thiomorpholinomethyl)biphenyl-3-yloxy)nicotinamido)cyclohexyl)pyrazolo[1,5-a]pyrimidine-3-carboxamide] | 0.02 nM
O=C(N[C@H]1CC[C@@H](NC(=O)c2cc(F)cnc2Oc2cccc(-c3ccc(CCCN4CCNCC4)cc3)c2)CC1)c1cc2n(n1)CCC2 [Example 133, N-((1s,4s)-4-(5-fluoro-2-(4′-(3-(piperazin-1-yl)propyl)biphenyl-3-yloxy)nicotinamido)cyclohexyl)-5,6-dihydro-4H-pyrrolo[1,2-b]pyrazole-2-carboxamide] | 0.0501 nM
Cc1nc(C(=O)N[C@H]2CC[C@@H](NC(=O)c3cc(F)cnc3Oc3cccc(-c4ccc(O)cc4CN(C)CC(=O)N(C)C)c3)CC2)cs1 [Example 30, N-((1s,4s)-4-(2-(2′-(((2-(dimethylamino)-2-oxoethyl)(methyl)amino)methyl)-4′-hydroxybiphenyl-3-yloxy)-5-fluoronicotinamido)cyclohexyl)-2-methylthiazole-4-carboxamide] | 0.0398 nM
Cc1nc(C(=O)N[C@H]2CC[C@@H](NC(=O)c3cc(F)cnc3Oc3cccc(-c4ccc(O)cc4CN4CCOCC4)c3)CC2)cs1 [Example 34, N-((1s,4s)-4-(5-fluoro-2-(4′-hydroxy-2′-(morpholinomethyl)biphenyl-3-yloxy)nicotinamido)cyclohexyl)-2-methylthiazole-4-carboxamide] | 0.0251 nM
C[C@@H]1CN(CCCc2ccc(-c3cccc(Oc4ncc(F)cc4C(=O)N[C@H]4CC[C@@H](NC(=O)c5csc(CO)n5)CC4)c3)cc2)C[C@H](C)N1 [Example 149, N-((1s,4s)-4-(2-(4′-(3-((3S,5R)-3,5-dimethylpiperazin-1-yl)propyl)biphenyl-3-yloxy)-5-fluoronicotinamido)cyclohexyl)-2-(hydroxymethyl)thiazole-4-carboxamide] | 0.0316 nM
O=C(N[C@H]1CC[C@@H](NC(=O)c2cc(F)cnc2Oc2cccc(-c3ccc(CCCN4CCNCC4)cc3)c2)CC1)c1cn2cc(F)ccc2n1 [Example 121, 6-fluoro-N-((1s,4s)-4-(5-fluoro-2-(4′-(3-(piperazin-1-yl)propyl)biphenyl-3-yloxy)nicotinamido)cyclohexyl)imidazo[1,2-a]pyridine-2-carboxamide] | 0.0631 nM
